Laboratory results reported in patent US9314438B2, “Elevation of the plasma HDL-cholesterol level” (Aarhus Universitet, priority 2007, dated 2016).

Key:
[1] = tested on: patients at high risk for coronary events; conditions: phase 3 clinical trial, active treatment group; trial terminated; cited from earlier work
[2] = tested on: normal Wistar rats given a high fat diet; experiment: In vivo study: isosteviol treatment of normal Wistar rats on high fat diet for 20 weeks (groups 3 and 4); conditions: for plasma HDL-cholesterol level increase, Δ in %: high fat diet + isosteviol 0.03 g/kg/day
Excerpt: (§1) 44 normal wistar rats at the age of about 6 weeks and a bodyweight of about 230 g, was randomised into 4 groups, with 11 in each group. Group 1 and 2 were fed with standard chow diet±Isosteviol (0.03 g/kg/day). Group 3 and 4 were diet induced to be hyperlipidemic by feeding with a high cholesterol containing diet (1.63% g cholesterol, 0.41% g Cholic acid, 16.3% g sunflower oil)±Isosteviol (0.03 g/kg/day). In the experiment was used Isosteviol with a purity of 99.4%. The treatment period was 20 weeks.
(§2) Blood samples were analyzed for hormones and lipids at the start and end of the study. The blood samples were taken from the tail or eye into glasses containing heparine/aprotinin. The samples were centrifuged and the plasma was frozen. The following were analyzed: total fasting plasma triglyceride level, total plasma cholesterol level, and plasma HDL-cholesterol level. Liver samples were analysed for mRNA expression of genes like SREBP-1, which have relation to the fat metabolism. The body weight was measured throughout the study period together with the food intake.
(§3) The fasting total plasma cholesterol level and the HDL-cholesterol level were measured by an enzymatic colorimetric test, the “cholesterol CHOD-PAP” method (cholesterol oxidase±phenol 4 amino phenazon), based on Trinder, using commercially available test kits (Roche Diagnostics, Basel, Germany), and the Cobas Mira instrument (Roche Diagnostics). The fasting plasma triglyceride level was measured by the enzymatic colorimetric GPO-PAP method (Glycerol phosphate oxidase±phenol 4 amino phenazon), based on Trinder, using commercially available test kits (Roche Diagnostics, Basel, Germany), and the Cobas Mira instrument (Roche Diagnostics).
(§4) Data are expressed as means±standard error of the mean (SEM). Statistical significance between two groups was evaluated using a two-tailed t test. A p value of less than 0.05 was considered statistically significant. For statistical analysis were used student t-tests and two way ANOVA-tests.
(§5) The setup differs from the setup in Example 1 by the use of non-diabetic rats versus the diabetic hyperlipidemic KKAY mouse model. In the present study the effect on HDL is investigated by comparing rats with a normal cholesterol level with rats having a diet induced elevated plasma cholesterol level.

KKAy mice = experiment: In vivo study: isosteviol treatment of KKAy mice for 9 weeks (plasma lipids, body weight, food intake)
Experimental: Twenty male KKAy-mice (Clea Japan, Tokyo, Japan), all 5 week-old, weighing 22-25 g were randomized to 2 groups and treated for 9 weeks with; A: standard chow diet (control); B: standard chow diet+20 mg/kg BW of ISV. As a non-diabetic control group (C), ten normal C57BL-mice (Taconic, Ry, Denmark) were fed with standard chow diet (control to A), see FIG. 2 for outline of the study. The food intake was measured halfway through the study. The composition of the standard chow diet dry matter was: Protein 24%, carbohydrate 71%, and Lipids 5%. The drug isosteviol (ISV, ent-16-ketobeyeran-19-oic acid; Wako Pure Chemical Industries, Osaka, Japan) was incorporated in the mice food pellet and administered orally. The Danish Council for Animal experiments has approved the study.
Hormones and lipids were measured from blood sample at start and end of the treatment period. Blood sample was taken from the tail of the animals on chilled tubes containing heparin/aprotinin and centrifuged (4000 g, 60 seconds, 4° C.), and plasma was frozen for subsequent analysis of insulin, glucose, triglycerides, total cholesterol and HDL-cholesterol. Fasting blood glucose, as well as bodyweight (BW), was measured before and after intervention.
Plasma blood glucose was determined using the glucose oxidase method (GOD-PAP, Boehringer Mannheim, GmbH Germany). Insulin was determined by radioimmunoassay with a guinea pig antiporcine insulin antibody (PNILGP4, Novo Nordisk, Bagsvaerd, Denmark), and mono-[^125I]-(TyrA14) labeled human insulin (Novo Nordisk) as tracer and rat insulin (Novo Nordisk) as standard. We separated free and bound radioactivity using ethanol (See Heding L. G. Determination of total serum insulin (IRI) in insulin-treated diabetic patients; Diabetologia 1972; 8:260-266). Interassay and intra-assay variation was below 10%. […] The fasting plasma triglyceride level was measured by the enzymatic colorimetric GPO-PAP method (Glycerol phosphate oxidase±phenol 4 amino phenazon), based on Trinder, using commercially available test kits (Roche Diagnostics, Basel, Germany), and the Cobas Mira instrument (Roche Diagnostics). The fasting total plasma cholesterol level and the HDL-cholesterol level were measured by an enzymatic colorimetric test, the “cholesterol CHOD-PAP” method (cholesterol oxidase±phenol 4 amino phenazon), based on Trinder, using commercially available test kits (Roche Diagnostics, Basel, Germany), and the Cobas Mira instrument (Roche Diagnostics).
Data are expressed as means±standard error of the mean (SEM). Statistical significance between two groups was evaluated using a two-tailed t test. A p value of less than 0.05 was considered statistically significant. For plasma glucose calculations, analysis of covariance with adjustment for end body weight was performed.

[3] = tested on: normal Wistar rats given a normal chow diet; experiment: In vivo study: isosteviol treatment of normal Wistar rats on chow diet for 20 weeks (groups 1 and 2); conditions: for plasma HDL-cholesterol level increase, Δ in %: chow diet + isosteviol 0.03 g/kg/day
Excerpt: as §1, §2, §3, §4, §5

[4] = High fat +Isosteviol, end (20 weeks)
[5] = High fat +Isosteviol, start of study
[6] = High fat +Isosteviol, start to end
[7] = start to end (20 weeks), listed as Isosteviol
[8] = high fat diet + isosteviol, start to end (20 weeks)
[9] = KKAy mice, 20 mg/kg BW/day, after 9 weeks, n=10, in mM
[10] = Chow +Isosteviol, end (20 weeks)
[11] = Chow +Isosteviol, start of study
[12] = chow diet + isosteviol, start to end (20 weeks)
[13] = comparing group 2 with group 1 at the end of the study period
[14] = group 2, chow + isosteviol, start to end (20 weeks)

CCOC(=O)N1c2ccc(C(F)(F)F)cc2[C@@H](N(Cc2cc(C(F)(F)F)cc(C(F)(F)F)c2)C(=O)OC)C[C@H]1CC [torcetrapib]
mortality [1]: increased mortality

C[C@@]12CC[C@@H]3[C@@](CC[C@H]4[C@@]3(C)CCC[C@@]4(C)C(=O)O)(CC1=O)C2 (single isomer, unassigned; ent-16) [isosteviol, ent-16-ketobeyeran-19-oic acid]
HDL cholesterol, End [2, 4]: 2.45 ± 0.25 MM | Total Cholesterol, End [2, 4]: 4.46 ± 0.37 MM | HDL cholesterol, Start [2, 5]: 1.34 ± 0.06 MM | Total Cholesterol, Start [2, 5]: 1.68 ± 0.1 MM | HDL cholesterol Δ Abs [2, 6]: 1.11 ± 0.26 mM | Total Cholesterol Δ Abs [2, 6]: 2.77 ± 0.38 mM | deaths ([2]; group 4, high fat diet + isosteviol, 20 weeks, two deaths in group 3 without isosteviol): No deaths | plasma HDL-cholesterol level increase, Δ in % ([2]; start to end (20 weeks)): 88% | plasma HDL-cholesterol level increase, Δ in % [2, 7]: 88% | fasting total plasma cholesterol level increase, Δ in % [2, 8]: 175% | fasting total plasma cholesterol level Δ [2, 8]: 2.77 ± 0.38 mmol/L | plasma HDL-cholesterol level Δ (SEM) [2, 8]: 1.11 ± 0.26 mmol/L | fasting total plasma cholesterol level increase, Δ in % ([2]; high fat diet + isosteviol, start to end (20 weeks), listed as Isosteviol): 175% | fasting plasma triglyceride (TG) level (KKAy mice; ISV group, age 5 week (start of treatment)): 1.25 mmol/L | fasting plasma triglyceride (TG) level (KKAy mice; ISV group, age 14 weeks (after 9 weeks treatment)): 2.02 mmol/L | TG level increase, age 14 weeks compared to age 5 week (KKAy mice; ISV group, KKAy control increased 192%): 62% | fasting total plasma cholesterol level increased by (KKAy mice; KKAy mice, 20 mg isosteviol/kg body weight/day in chow, after 9 weeks, vs KKAy control): 28% | fasting plasma HDL-cholesterol, mean±SEM (KKAy mice; [9]): 2.999±0.091 | fasting plasma total cholesterol, mean±SEM (KKAy mice; [9]): 3.055±0.067 | plasma HDL-cholesterol concentration increased by (KKAy mice; KKAy mice, 20 mg/kg BW/day, after 9 weeks, vs KKAy control): 71% | plasma TG decreased compared to the KKAy group (KKAy mice; after 9 weeks treatment): 48% | body weight (KKAy mice; after 9 weeks treatment, KKAy control 41.6 g): 36.3 g | reduction in weight (KKAy mice; end of the 9 week treatment period, vs KKAy control): 13% | HDL cholesterol, End [3, 10]: 1.42 ± 0.08 MM | Total Cholesterol, End [3, 10]: 1.67 ± 0.09 MM | HDL cholesterol, Start [3, 11]: 1.25 ± 0.06 MM | Total Cholesterol, Start [3, 11]: 1.61 ± 0.06 MM | HDL cholesterol Δ Abs ([3]; Chow +Isosteviol, start to end): 0.17 ± 0.04 mM | Total Cholesterol Δ Abs ([3]; Chow +Isosteviol, start to end): 0.07 ± 0.06 mM | plasma HDL-cholesterol level increase, Δ in % ([3]; start to end (20 weeks)): 14% | plasma HDL-cholesterol level increase, Δ in % [3, 7]: 14% | fasting total plasma cholesterol level increase, Δ in % [3, 12]: 4% | fasting total plasma cholesterol level Δ [3, 12]: 0.07 ± 0.06 mmol/L | fasting total plasma cholesterol level increase, Δ in % ([3]; chow diet + isosteviol, start to end (20 weeks), listed as Isosteviol): 4% | reduction in triglyceride concentration, Δchange in % [3, 13]: 61±18% | reduction in triglyceride concentration, Δchange in absolute values [3, 13]: -0.28 ± 0.10 mmol/L | body weight reduced by ([3]; group 2 (chow + isosteviol) compared to group 1 (chow control), 20 weeks): 16% | body weight, mean±SEM ([3]; group 2, chow + isosteviol, 10 weeks of treatment): 371 ± 10 g | body weight, mean±SEM ([3]; group 2, chow + isosteviol, after 20 weeks of treatment): 388 ± 13 g | change in the fasting plasma triglyceride concentration [3, 14]: -0.16 ± 0.09 mmol/L | decrease in the fasting plasma triglyceride concentration [3, 14]: 23% | deaths ([3]; group 2, chow diet + isosteviol, 20 weeks): No deaths
